Each structure is given as a SMILES string.

These results are taken from patent US20260285853A1, “COMPOUNDS AND METHODS FOR MODULATING SPLICING” (REMIX THERAPEUTICS INC., priority 2023, published 2026).

Common to all, as to format: cell-based
Test [1] concerns MYB mRNA. Description: Splicing RT-qPCR assay (THP), Table 2A. As to conditions: Table 2A (THP); for AC50: AJ mRNA increase, read-out: MYB AJ (increase in alternative junction mRNA, AC50); for IC50: CJ mRNA decrease, read-out: MYB CJ (decrease in canonical junction mRNA, IC50).
For test [2], the system named is HTT mRNA. In words: Splicing RT-qPCR assay (THP), Table 2A. As to conditions: Table 2A (THP); for AC50: AJ mRNA increase, read-out: HTT AJ (increase in alternative junction mRNA, AC50); for IC50: CJ mRNA decrease, read-out: HTT CJ (decrease in canonical junction mRNA, IC50).
The test system of test [3] is HTT mRNA. In words: Gene panel canonical junction qPCR assay, decrease in CJ mRNA, Table 3. The settings on record: decrease in canonical junction (CJ) mRNA, gene panel qPCR, Table 3. An outline of the steps: (§1)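 IC50 denotes the concentration giving 50% decrease in canonical-junction mRNA, fitted by 4-parameter logistic to percentage response derived from ΔΔCt versus housekeeping gene and DMSO control. Cells (A673 or K562) exposed 24 h to 11-point 3-fold serial dilutions from 10 uM top, DMSO ≤0.25%; junction-spanning primer/probe qPCR.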

For test [4], the system named is MYB mRNA. The test is described as above. The settings on record: decrease in canonical junction (CJ) mRNA, gene panel qPCR, Table 3. The essentials: as §1
The test system of test [5] is SH-SY5Y (human neuroblastoma) cells. Description: Cell viability, Cell Titer Glo 2.0 assay. As to conditions: read-out: Viability SHSY5Y.3 GI50. An outline of the steps: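 Viability was read by CellTiter-Glo 2.0 luminescence after a 72-hour compound exposure at 37° C. under 5% CO2. Cells were in IMDM plus 10% FBS containing 0.1% DMSO, and medium-only wells gave the blank.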

For `Cc1cn2cc(NC(=O)c3c(F)cc(N4CCC(NC5CC5)CC4)c4cn(C)nc34)c(Oc3ccccc3)cc2n1` [Compound 417, 4-[4-(cyclopropylamino)-1-piperidyl]-6-fluoro-2-methyl-N-(2-methyl-7-phenoxyimidazo[1,2-a]pyridin-6-yl)-indazole-7-carboxamide], the figures for the AC50 in the test with MYB mRNA [1] and in the test with HTT mRNA [2] were less than 100 nM and 1000 to 10000 nM, respectively. Besides, the IC50 is less than 100 nM in the test on MYB mRNA [1], more than 10000 nM in the test on HTT mRNA [2], more than 10000 nM in the test on HTT mRNA [3] and less than 100 nM with MYB mRNA [4]. Moreover, in test [5], the concentration for 50% growth inhibition (GI50) lay within 100 to 1000 nM.
On to `COc1cc2nn(C)c(C)c2cc1NC(=O)c1c(F)cc(N2CCC(NC3CC3)CC2)c2cn(C)nc12` [Compound 418, 4-[4-(cyclopropylamino)-1-piperidyl]-6-fluoro-N-(6-methoxy-2,3-dimethyl-indazol-5-yl)-2-methyl-indazole-7-carboxamide], for which the AC50 in the test on MYB mRNA [1] was 100 to 1000 nM; in the test with HTT mRNA [2] it was more than 10000 nM. Moreover, the IC50 was 1000 to 10000 nM with MYB mRNA [1], more than 10000 nM in the test on HTT mRNA [2], more than 10000 nM in the test on HTT mRNA [3] and 1000 to 10000 nM with MYB mRNA [4]. Also, the GI50 in test [5] fell in the range of 100 to 1000 nM.
Turning to `COc1c(NC(=O)c2c(F)cc(N3CCC(NC4CC4)CC3)c3cn(C)nc23)cn2cc(C)nc(C)c12` [Compound 419, 4-[4-(cyclopropylamino)-1-piperidyl]-6-fluoro-N-(8-methoxy-1,3-dimethyl-pyrrolo[1,2-a]pyrazin-7-yl)-2-methyl-indazole-7-carboxamide], the figures for the concentration at half-maximal activity (AC50) in the test with MYB mRNA [1] and with HTT mRNA [2] were 1000 to 10000 nM and more than 10000 nM, respectively. Also, the IC50 in the test on MYB mRNA [1] is 1000 to 10000 nM; with HTT mRNA [2] it was more than 10000 nM; with HTT mRNA [3], more than 10000 nM; in the test with MYB mRNA [4] it was 1000 to 10000 nM. In addition, the 50% growth inhibitory concentration (GI50) in test [5] fell in the range of 1000 to 10000 nM.
With `Cn1cc2c(N3CCC(NC4CC4)CC3)cc(F)c(C(=O)Nc3ccnnc3O)c2n1` [Compound 420, 4-[4-(cyclopropylamino)-1-piperidyl]-6-fluoro-N-(3-hydroxypyridazin-4-yl)-2-methyl-indazole-7-carboxamide], the half-maximal activity concentration (AC50) with MYB mRNA [1] and in the test with HTT mRNA [2] was more than 10000 nM throughout. The IC50 with MYB mRNA [1], in the test on HTT mRNA [2], with HTT mRNA [3] and with MYB mRNA [4] was more than 10000 nM in each case. The GI50 in test [5] is more than 10000 nM.
In the case of `COc1cnncc1NC(=O)c1c(F)cc(N2CCC(NC3CC3)CC2)c2cn(C)nc12` [Compound 421, 4-[4-(cyclopropylamino)-1-piperidyl]-6-fluoro-N-(5-methoxypyridazin-4-yl)-2-methyl-indazole-7-carbox-amide], the concentration at half-maximal activity (AC50) in the test with MYB mRNA [1] and in the test with HTT mRNA [2] was more than 10000 nM in each case. Besides, the 50% inhibitory concentration (IC50) with MYB mRNA [1], in the test with HTT mRNA [2], in the test with HTT mRNA [3] and in the test on MYB mRNA [4] was more than 10000 nM in each case. The GI50 in test [5] lay within 1000 to 10000 nM.
For the compound `Cn1cc2cc(NC(=O)c3c(F)cc(N4CCC(NC5CC5)CC4)c4cn(C)nc34)c(F)cc2n1` [Compound 422, 4-[4-(cyclopropylamino)-1-piperidy1]-6-fluoro-N-(6-fluoro-2-methyl-indazol-5-yl)-2-methyl-indazole-7-carboxamide], the AC50 in the test on MYB mRNA [1] was less than 100 nM; with HTT mRNA [2] it was 100 to 1000 nM. Also, the IC50 in the test with MYB mRNA [1] is less than 100 nM; in the test with HTT mRNA [2] it was 100 to 1000 nM; with HTT mRNA [3] it was 100 to 1000 nM; in the test on MYB mRNA [4] it was less than 100 nM. Moreover, the concentration for 50% growth inhibition (GI50) in test [5] lay in the range of 100 to 1000 nM.
On to `COc1cc(NC(=O)c2c(F)cc(N3CCC(NC4CC4)CC3)c3cn(C)nc23)cc2cn(C)nc12` [Compound 423, 4-[4-(cyclopropylamino)-1-piperidyl]-6-fluoro-N-(7-methoxy-2-methyl-indazol-5-yl)-2-methyl-indazole-7-carboxamide], for which the results for the concentration at half-maximal activity (AC50) in the test with MYB mRNA [1] and with HTT mRNA [2] were 100 to 1000 nM and 1000 to 10000 nM, respectively. The half-inhibitory concentration (IC50) in the test on MYB mRNA [1] is 100 to 1000 nM; in the test on HTT mRNA [2] it was 1000 to 10000 nM; in the test with HTT mRNA [3], 1000 to 10000 nM; in the test with MYB mRNA [4] it was 100 to 1000 nM. For the same compound, the GI50 in test [5] was in the range of 1000 to 10000 nM.
Consider `CC(=O)NCc1cn2cc(NC(=O)c3c(F)cc(N4CCC(NC5CC5)CC4)c4cn(C)nc34)nc2c(C)n1` [Compound 424, N-[6-(acetamidomethyl)-8-methyl-imidazo [1,2-a]pyrazin-2-yl]-4-[4-(cyclopropylamino)-1-piperidyl]-6-fluoro-2-methyl-indazole-7-carboxamide], for which the AC50 in the test with MYB mRNA [1] and in the test on HTT mRNA [2] was more than 10000 nM throughout. The IC50 in the test with MYB mRNA [1], in the test with HTT mRNA [2], with HTT mRNA [3] and in the test on MYB mRNA [4] was more than 10000 nM throughout. For the same compound, in test [5], the GI50 is more than 10000 nM.
As to `COc1c(NC(=O)c2c(F)cc(N3CCC(NC4CC4)CC3)c3cn(C)nc23)cc2cn(C)nc2c1C` [Compound 425, 4-[4-(cyclopropylamino)-1-piperidy1]-6-fluoro-N-(6-methoxy-2,7-dimethyl-indazol-5-y1)-2-methyl-indazole-7-carboxamide], the AC50 in the test with MYB mRNA [1] was 100 to 1000 nM; in the test with HTT mRNA [2] it was 1000 to 10000 nM. Besides, the half-maximal inhibitory concentration (IC50) lay within 100 to 1000 nM with MYB mRNA [1], 1000 to 10000 nM in the test on HTT mRNA [2], 1000 to 10000 nM in the test on HTT mRNA [3] and 100 to 1000 nM in the test on MYB mRNA [4]. The GI50 in test [5] lay in the range of 100 to 1000 nM.
Turning to `Cn1cc2c(N3CCC(NC4CC4)CC3)cc(F)c(C(=O)Nc3cc4cn(C)nc4n(C)c3=O)c2n1` [Compound 426, 4-[4-(cyclopropylamino)-1-piperidy1]-N-(2,7-dimethyl-6-oxo-pyrazolo[3,4-b]pyridin-5-y1)-6-fluoro-2-methyl-indazole-7-carboxamide], the values for the AC50 in the test on MYB mRNA [1] and with HTT mRNA [2] were 100 to 1000 nM and 1000 to 10000 nM, respectively. The half-inhibitory concentration (IC50) in the test on MYB mRNA [1] is 100 to 1000 nM; in the test with HTT mRNA [2], 1000 to 10000 nM; in the test on HTT mRNA [3], 1000 to 10000 nM; with MYB mRNA [4], 100 to 1000 nM. In test [5], the GI50 fell in the range of 1000 to 10000 nM.
Turning to `Cc1cn2cc(NC(=O)c3c(F)cc(N4CCC(NC5CC5)CC4)c4cn(C)nc34)nc(-n3ccccc3=O)c2n1` [Compound 427, 4-[4-(cyclopropylamino)-1-piperidyl]-6-fluoro-2-methyl-N-[2-methyl-8-(2-oxo-1-pyridyl)-imidazo[1,2-a]-pyrazin-6-yl]-indazole-7-carboxamide], the AC50 with MYB mRNA [1] was 1000 to 10000 nM; with HTT mRNA [2] it was more than 10000 nM. Further, the IC50 with MYB mRNA [1], in the test on HTT mRNA [2], in the test with HTT mRNA [3] and in the test with MYB mRNA [4] was more than 10000 nM in each case. Besides, the GI50 in test [5] was more than 10000 nM.
For `COc1cc2nn(C)cc2cc1NC(=O)c1c(F)cc(N2[C@@H]3CC[C@H]2C[C@@H](NC2CC2)C3)c2cn(C)nc12` [Compound 428, 4-[(1R,5S)-3-(cyclo-propyl-amino)-8-azabicyclo [3.2.1]octan-8-yl]-6-fluoro-N-(6-methoxy-2-methyl-indazol-5-yl)-2-methyl-indazole-7-carboxamide], the AC50 in the test with MYB mRNA [1] was 1000 to 10000 nM; with HTT mRNA [2], more than 10000 nM. Further, the IC50 is 1000 to 10000 nM in the test on MYB mRNA [1], more than 10000 nM in the test with HTT mRNA [2], more than 10000 nM in the test on HTT mRNA [3] and 1000 to 10000 nM with MYB mRNA [4]. Besides, the concentration for 50% growth inhibition (GI50) in test [5] fell in the range of 1000 to 10000 nM.
On to `COc1cc2nn(C)cc2cc1NC(=O)c1c(F)cc(N2[C@@H]3CC[C@H]2C[C@H](NC2CC2)C3)c2cn(C)nc12` [Compound 429, 4-[(1S,5R)-3-(cyclopropyl-amino)-8-azabicyclo-[3.2.1]octan-8-yl]-6-fluoro-N-(6-methoxy-2-methyl-indazol-5-yl)-2-methyl-indazole-7-carboxamide], for which the figures for the AC50 with MYB mRNA [1] and in the test with HTT mRNA [2] were 1000 to 10000 nM and more than 10000 nM, respectively. Further, the 50% inhibitory concentration (IC50) in the test with MYB mRNA [1], in the test with HTT mRNA [2], with HTT mRNA [3] and in the test on MYB mRNA [4] was 1000 to 10000 nM each time. Moreover, the GI50 in test [5] lay in the range of 1000 to 10000 nM.
On to `COc1nc2nn(C)cc2cc1NC(=O)c1c(F)cc(N2CCC(NC3CC3)CC2)c2cn(C)nc12` [Compound 431, 4-[4-(cyclopropylamino)-1-piperidyl]-6-fluoro-N-(6-methoxy-2-methyl-pyrazolo-[3,4-b]pyridin-5-yl)-2-methyl-indazole-7-carboxamide], for which the concentration at half-maximal activity (AC50) with MYB mRNA [1] was less than 100 nM; in the test on HTT mRNA [2], 100 to 1000 nM. Also, the IC50 was less than 100 nM with MYB mRNA [1], 100 to 1000 nM with HTT mRNA [2], 100 to 1000 nM in the test on HTT mRNA [3] and less than 100 nM in the test with MYB mRNA [4]. Besides, the GI50 in test [5] is 100 to 1000 nM.
Turning to `COc1cn2nc(C)cc2cc1NC(=O)c1c(F)cc(N2CCC(NC3CC3)CC2)c2cn(C)nc12` [Compound 432, 4-[4-(cyclopropylamino)-1-piperidyl]-6-fluoro-N-(6-methoxy-2-methyl-pyrazolo[1,5-a]pyridin-5-yl)-2-methyl-indazole-7-carboxamide], the AC50 in the test on MYB mRNA [1] was less than 100 nM; in the test on HTT mRNA [2], 100 to 1000 nM. For the same compound, the concentration for half-maximal inhibition (IC50) was less than 100 nM in the test with MYB mRNA [1], 100 to 1000 nM in the test with HTT mRNA [2], 100 to 1000 nM in the test with HTT mRNA [3] and less than 100 nM with MYB mRNA [4]. For the same compound, the GI50 in test [5] was less than 100 nM.
